Measurements taken from ChEMBL document CHEMBL1201862, “PubChem BioAssay data set” (2004).
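How tested: cells in 96-well plates exposed to compound for 48 hours at five concentrations. At the GI50, growth is halved.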 Activity calls are given as the source filed them. No stated cut-off is given here; in the data, active = GI50 up to about 1.1 µM and inactive = higher.

Tests used:
Assay in all cases: NCI anticancer screen, dose series, 48 h
[1] = test system: A549
[2] = test system: COLO 205
[3] = test system: DU-145
[4] = test system: EKVX
[5] = test system: HOP-62
[6] = test system: HT-29
[7] = test system: K562
[8] = test system: KM12
[9] = test system: M14
[10] = test system: OVCAR-5
[11] = test system: OVCAR-8
[12] = test system: PC-3
[13] = test system: SF-295
[14] = test system: SK-MEL-2
[15] = test system: SK-MEL-5
[16] = test system: UACC-257
[17] = test system: OVCAR-4
[18] = test system: SW-620
[19] = test system: HCC 2998
[20] = test system: SR

Measured: GI50

CCOC(=O)c1c(N=C(S)Nc2ccc(Cl)cc2)sc2c1CCN(C)C2
inactive: [1] > 100 µM | [2] > 100 µM | [3] > 100 µM | [4] > 100 µM | [5] > 100 µM | [6] > 100 µM | [7] 61 µM | [8] > 100 µM | [9] > 100 µM | [10] > 100 µM | [11] > 100 µM | [12] > 100 µM | [13] > 100 µM | [14] > 100 µM | [15] > 100 µM | [16] > 100 µM

Nc1ccc(Oc2ccc(C34CC5C6CC7(c8ccc(Oc9ccc(N)cc9)cc8)CC5C(C3)C(C7)C6C4)cc2)cc1
inactive: [1] > 100 µM | [2] > 100 µM | [3] > 100 µM | [4] > 100 µM | [5] > 100 µM | [6] > 100 µM | [7] > 100 µM | [8] > 100 µM | [9] > 100 µM | [17] > 100 µM | [10] > 100 µM | [11] > 100 µM | [12] > 100 µM | [13] > 100 µM | [14] > 100 µM | [15] > 100 µM | [18] > 100 µM | [16] > 100 µM

O=C1CCCc2ccc3c(c21)CC1(Cc2cc4c(cc2C1)CCCC4)C3
inactive: [1] 22 µM | [2] 14.8 µM | [3] 20.9 µM | [4] 21.1 µM | [19] 42.9 µM | [5] 24.7 µM | [6] 18.4 µM | [7] 6.49 µM | [8] 22.2 µM | [9] 16.9 µM | [17] 22.1 µM | [10] 27.4 µM | [11] 19.7 µM | [13] 29.8 µM | [14] 21.2 µM | [15] 12.6 µM | [20] 6.98 µM | [18] 16 µM | [16] 18.5 µM

O=c1[nH]nc(-c2ccccc2)n1Nc1ccccc1
inactive: [1] > 100 µM | [2] > 100 µM | [3] > 100 µM | [4] > 100 µM | [19] > 100 µM | [6] > 100 µM | [7] > 100 µM | [8] > 100 µM | [9] > 100 µM | [17] > 100 µM | [10] > 100 µM | [11] > 100 µM | [13] > 100 µM | [14] > 100 µM | [15] > 100 µM | [20] > 100 µM | [18] > 100 µM | [16] > 100 µM

Cc1ccc(/C(=C/C=C(C#N)C#N)Sc2cc(Cl)ccc2Cl)cc1
inactive: [1] 9.98 µM | [2] 4.86 µM | [3] 3.4 µM | [4] 14 µM | [5] 3.71 µM | [6] 3.81 µM | [8] 4.78 µM | [9] 4.48 µM | [17] 6.31 µM | [10] 5.02 µM | [11] 2.37 µM | [13] 3.43 µM | [14] 8.75 µM | [15] 12.1 µM | [18] 1.66 µM | [16] 2.78 µM

C=CCCON(C(=O)OC(C)(C)C)C(C)(C)C
inactive: [1] > 100 µM | [2] > 100 µM | [3] > 100 µM | [4] > 100 µM | [5] > 100 µM | [6] > 100 µM | [7] > 100 µM | [8] > 100 µM | [9] > 100 µM | [10] > 100 µM | [11] > 100 µM | [12] > 100 µM | [13] > 100 µM | [14] > 100 µM | [15] > 100 µM | [18] > 100 µM | [16] > 100 µM

c1ccc2c(c1)[nH]c1nc3cc(-c4ccc5nc6c(nc5c4)[nH]c4ccccc46)ccc3nc12
inactive: [1] > 100 µM | [3] > 100 µM | [4] > 90.4 µM | [19] > 79.1 µM | [5] > 93.5 µM | [6] > 100 µM | [8] > 100 µM | [9] > 100 µM | [17] > 100 µM | [10] > 100 µM | [11] > 100 µM | [12] > 100 µM | [13] > 100 µM | [14] > 100 µM | [15] 54.1 µM | [18] > 100 µM | [16] > 100 µM

CC1CC(=O)NC2CC1C2(C)C (configuration not stated)
inactive: [1] > 100 µM | [2] > 100 µM | [3] > 100 µM | [19] > 100 µM | [6] > 100 µM | [7] > 100 µM | [8] > 100 µM | [9] > 100 µM | [17] > 100 µM | [10] > 100 µM | [11] > 100 µM | [13] > 100 µM | [14] > 100 µM | [15] > 100 µM | [20] > 100 µM | [18] > 100 µM | [16] > 100 µM

COc1cc(/C=C/C(=O)N[C@@H]2C(=O)N3[C@@H]2SC(C)(C)[C@@H]3C(=O)O)cc(OC)c1OC
inactive: [1] > 100 µM | [2] > 100 µM | [3] > 100 µM | [4] > 100 µM | [19] > 100 µM | [6] > 100 µM | [7] > 100 µM | [8] > 100 µM | [9] > 100 µM | [17] > 100 µM | [10] > 100 µM | [11] > 100 µM | [12] > 100 µM | [13] > 100 µM | [14] > 100 µM | [15] > 100 µM | [18] > 100 µM | [16] > 100 µM

CC1(C)OC1COc1c2occc2cc2ccc(=O)oc12 (configuration not stated)
inactive: [1] 67.6 µM | [2] > 100 µM | [3] > 100 µM | [4] 58.6 µM | [19] > 100 µM | [5] > 100 µM | [6] > 100 µM | [7] > 100 µM | [8] > 100 µM | [9] > 100 µM | [17] > 100 µM | [10] > 100 µM | [11] 60.5 µM | [12] > 100 µM | [13] > 100 µM | [14] > 100 µM | [15] 86.3 µM | [18] > 100 µM | [16] > 100 µM

NC(Cc1cc(I)c(Oc2ccc(O)c(I)c2)c(I)c1)C(=O)O (configuration not stated) [RATHYRONINE]
inactive: [1] > 100 µM | [2] > 100 µM | [3] > 100 µM | [4] > 100 µM | [5] > 100 µM | [6] > 100 µM | [8] > 100 µM | [9] > 100 µM | [17] > 100 µM | [10] > 100 µM | [11] > 100 µM | [12] > 100 µM | [13] > 100 µM | [14] 19.9 µM | [15] 37.6 µM | [18] > 100 µM | [16] > 100 µM
